Measured values as given in the supplement of paper PMC6045584.
± gives the standard deviation of the averaged measurements.

How the values were obtained:
XAV-939 = compound: Oc1nc(-c2ccc(C(F)(F)F)cc2)nc2c1CSCC2 [XAV-939]; assay: surviving fraction relative to DMSO-only wells; higher = less growth inhibition; details: exposure time: 5 days
In short: (§1)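 Surviving fraction was calculated by normalising CellTiter-Glo luminescence to the median of DMSO-only wells. Tumour cell lines in log phase were seeded in 384-well plates at 250–500 cells per well, and 24 hours later were exposed continuously for five days to inhibitors at 0.5, 1, 5, 10, 50, 100, 500 and 1000 nM.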

MLN-4924 = compound: NS(=O)(=O)OC[C@@H]1C[C@@H](n2ccc3c(N[C@H]4CCc5ccccc54)ncnc32)C[C@@H]1O [MLN-4924]; assay: as above; details: exposure time: 5 days
In short: as §1

Test System	surviving fraction (XAV-939; 0.5 nM)	surviving fraction (XAV-939; 1 nM)	surviving fraction (XAV-939; 5 nM)	surviving fraction (XAV-939; 10 nM)	surviving fraction (XAV-939; 50 nM)	surviving fraction (XAV-939; 100 nM)	surviving fraction (XAV-939; 500 nM)	surviving fraction (XAV-939; 1000 nM)	surviving fraction (MLN-4924; 0.5 nM)	surviving fraction (MLN-4924; 1 nM)	surviving fraction (MLN-4924; 5 nM)	surviving fraction (MLN-4924; 10 nM)	surviving fraction (MLN-4924; 50 nM)	surviving fraction (MLN-4924; 100 nM)	surviving fraction (MLN-4924; 500 nM)	surviving fraction (MLN-4924; 1000 nM)
HUO3N1 BONE	1.03 ± 0.037	1.07 ± 0.12	1.04 ± 0.032	1.06 ± 0.048	1.09 ± 0.064	1.08 ± 0.034	0.761 ± 0.043	0.759 ± 0.0095	0.9977 ± 0.0055	0.994 ± 0.022	1.02 ± 0.017	1.05 ± 0.036	1.17 ± 0.041	1.19 ± 0.034	0.663 ± 0.031	0.528 ± 0.014
HCC1806 BREAST	0.98 ± 0.029	1.2 ± 0.089	1.11 ± 0.078	1.07 ± 0.061	1.14 ± 0.13	1.1 ± 0.036	1.04 ± 0.073	1.06 ± 0.091	0.949 ± 0.094	1.02 ± 0.089	0.907 ± 0.074	0.395 ± 0.02	0.0957 ± 0.0076	0.0527 ± 0.0076	0.031	0.029 ± 0.0017
COLO320DM LARGE INTESTINE	1.1 ± 0.051	1.14 ± 0.069	1.08 ± 0.15	0.997 ± 0.11	1.08 ± 0.013	0.994 ± 0.075	0.827 ± 0.071	0.805 ± 0.088	1.1 ± 0.026	1.21 ± 0.045	1.14 ± 0.12	1.15 ± 0.1	1.06 ± 0.043	0.996 ± 0.03	0.803 ± 0.11	0.693 ± 0.03
ZR751 BREAST	0.873 ± 0.048	0.925 ± 0.18	0.869 ± 0.092	0.987 ± 0.03	0.683 ± 0.082	0.762 ± 0.15	0.69 ± 0.052	0.685 ± 0.036	1.23 ± 0.056	1.08 ± 0.17	1.13 ± 0.13	1.24 ± 0.036	1.06 ± 0.13	1.03 ± 0.092	0.784 ± 0.11	0.669 ± 0.063
LM7 BONE	0.964 ± 0.078	1.03 ± 0.062	1.05 ± 0.075	1.131 ± 0.011	1.08 ± 0.11	1.08 ± 0.048	0.915 ± 0.068	0.877 ± 0.045	0.919 ± 0.081	1.02 ± 0.026	1.09 ± 0.059	0.946 ± 0.034	0.486 ± 0.033	0.256 ± 0.026	0.1 ± 0.02	0.1 ± 0.0098
SKBR3 BREAST	1.07 ± 0.17	0.943 ± 0.089	1.04 ± 0.16	0.898 ± 0.054	1.11 ± 0.065	1.02 ± 0.1	0.854 ± 0.14	0.772 ± 0.053	1.01 ± 0.067	1.06 ± 0.12	1.11 ± 0.083	1.01 ± 0.062	0.187 ± 0.015	0.14 ± 0.01	0.159 ± 0.017	0.175 ± 0.011
SCC36 HEADNECK	1.07 ± 0.11	0.964 ± 0.16	1.19 ± 0.045	1.06 ± 0.082	1.11 ± 0.032	1.1 ± 0.077	0.825 ± 0.029	0.711 ± 0.022	1.06 ± 0.18	0.955 ± 0.11	1.13 ± 0.061	1.14 ± 0.09	0.544 ± 0.12	0.259 ± 0.029	0.0483 ± 0.0085	0.047 ± 0.002
CAL120 BREAST	0.984 ± 0.027	1.02 ± 0.013	1.01 ± 0.019	0.969 ± 0.018	1.01 ± 0.021	1.011 ± 0.0096	0.951 ± 0.012	0.9582 ± 0.0029	0.961 ± 0.064	0.963 ± 0.028	0.952 ± 0.06	0.889 ± 0.068	0.667 ± 0.057	0.482 ± 0.036	0.14 ± 0.0021	0.121 ± 0.0033
KPD BONE	0.937 ± 0.07	0.981 ± 0.061	0.999 ± 0.048	0.995 ± 0.043	0.992 ± 0.058	0.926 ± 0.035	0.883 ± 0.035	0.828 ± 0.061	0.9553 ± 0.0032	0.985 ± 0.028	1.04 ± 0.057	1.09 ± 0.094	0.921 ± 0.045	0.736 ± 0.048	0.239 ± 0.017	0.183 ± 0.022
H23 LUNG	0.953 ± 0.035	1.03 ± 0.062	1.04 ± 0.071	1.08 ± 0.075	1.01 ± 0.037	0.992 ± 0.02	0.391 ± 0.041	0.318 ± 0.024	0.992 ± 0.05	1.01 ± 0.053	1.07 ± 0.044	1.09 ± 0.049	1.18 ± 0.083	0.886 ± 0.073	0.14 ± 0.01	0.082 ± 0.004
SCC90 HEADNECK	1.01 ± 0.1	1.11 ± 0.18	1.08 ± 0.077	1.13 ± 0.071	1.05 ± 0.03	1.05 ± 0.084	0.894 ± 0.032	0.918 ± 0.07	1.09 ± 0.27	1.04 ± 0.042	1.04 ± 0.099	0.541 ± 0.0053	0.212 ± 0.033	0.167 ± 0.01	0.144 ± 0.018	0.16 ± 0.032
SUM44 BREAST	1.02 ± 0.059	1.05 ± 0.051	1.05 ± 0.02	1.06 ± 0.044	1.08 ± 0.045	1.1 ± 0.025	1.07 ± 0.023	1.12 ± 0.06	1.22 ± 0.37	1.27 ± 0.4	1.27 ± 0.33	1.23 ± 0.36	0.785 ± 0.24	0.63 ± 0.22	0.486 ± 0.13	0.495 ± 0.17
NOS1 BONE	1.11 ± 0.086	1.06 ± 0.045	1.29 ± 0.26	1.14 ± 0.074	1.17 ± 0.083	1.06 ± 0.096	0.783 ± 0.1	0.778 ± 0.065	0.988 ± 0.11	1.02 ± 0.11	1.23 ± 0.23	1.29 ± 0.21	1.22 ± 0.1	1.04 ± 0.14	0.637 ± 0.083	0.506 ± 0.033
NCIH441 LUNG	0.962 ± 0.096	1.07 ± 0.052	1.02 ± 0.064	1.07 ± 0.065	1.02 ± 0.077	1.06 ± 0.054	1.01 ± 0.045	0.918 ± 0.052	1.08 ± 0.077	1.15 ± 0.099	1.11 ± 0.087	1.12 ± 0.03	1.01 ± 0.051	0.846 ± 0.11	0.431 ± 0.033	0.414 ± 0.022
SUM149 BREAST	1.02 ± 0.094	0.987 ± 0.05	0.971 ± 0.067	0.942 ± 0.034	0.854 ± 0.095	0.691 ± 0.037	0.432 ± 0.0091	0.328 ± 0.022	1.08 ± 0.13	1.01 ± 0.16	1.09 ± 0.13	1.056 ± 0.0092	0.86 ± 0.073	0.555 ± 0.046	0.0803 ± 0.017	0.066 ± 0.003
MFM223 BREAST	1.18 ± 0.037	1.11 ± 0.062	1.12 ± 0.023	1.112 ± 0.0058	0.913 ± 0.034	1.08 ± 0.043	0.891 ± 0.059	0.685 ± 0.033	1.43 ± 0.45	1.47 ± 0.56	1.33 ± 0.39	1.16 ± 0.56	0.586 ± 0.066	0.42 ± 0.032	0.181 ± 0.022	0.152 ± 0.062
ASKA SYNOVIAL	1.15 ± 0.11	1.17 ± 0.098	1.18 ± 0.028	1.23 ± 0.13	1.2 ± 0.073	1.14 ± 0.065	0.98 ± 0.068	0.984 ± 0.023	1.11 ± 0.025	1.01 ± 0.02	1.08 ± 0.14	1.151 ± 0.011	0.946 ± 0.18	0.486 ± 0.08	0.33 ± 0.04	0.348 ± 0.019
HSSYII SYNOVIAL	0.942 ± 0.026	0.901 ± 0.035	0.994 ± 0.043	0.976 ± 0.011	0.961 ± 0.013	0.938 ± 0.031	0.667 ± 0.034	0.617 ± 0.038	1.01 ± 0.14	1 ± 0.078	0.965 ± 0.033	0.992 ± 0.071	0.286 ± 0.012	0.166 ± 0.008	0.0248 ± 0.001	0.0283 ± 0.002
RDES SOFT TISSUE	1.24 ± 0.15	1.3 ± 0.16	1.29 ± 0.21	1.22 ± 0.2	1.21 ± 0.14	1.18 ± 0.27	1.11 ± 0.11	1.08 ± 0.16	1.24 ± 0.12	1.11 ± 0.22	1.29 ± 0.17	1.26 ± 0.081	0.952 ± 0.018	0.687 ± 0.067	0.0467 ± 0.0025	0.0413 ± 0.0021
JURKAT HAEMATOPOIETIC AND LYMPHOID TISSUE	1.03 ± 0.011	1.051 ± 0.0042	1.04 ± 0.013	1.03 ± 0.03	0.9907 ± 0.0059	1 ± 0.018	0.987 ± 0.02	0.981 ± 0.029	1.07 ± 0.016	1.02 ± 0.032	1.01 ± 0.025	0.931 ± 0.025	0.371 ± 0.012	0.154 ± 0.0059	0.0333 ± 0.00058	0.0313 ± 0.00058
JIMT1 BREAST	1 ± 0.013	1.03 ± 0.027	0.9983 ± 0.008	0.995 ± 0.031	1 ± 0.05	1.04 ± 0.025	0.934 ± 0.032	0.943 ± 0.0033	1.06 ± 0.04	1.016 ± 0.0069	1.06 ± 0.019	1.06 ± 0.017	1.09 ± 0.056	1.06 ± 0.062	0.764 ± 0.046	0.539 ± 0.073
